Assay [1] addresses T1, Angiotensin II receptor (AT-1) type-1 (Rattus norvegicus, UniProt P29089+P25095).
T1 sequence (P29089 whole entry): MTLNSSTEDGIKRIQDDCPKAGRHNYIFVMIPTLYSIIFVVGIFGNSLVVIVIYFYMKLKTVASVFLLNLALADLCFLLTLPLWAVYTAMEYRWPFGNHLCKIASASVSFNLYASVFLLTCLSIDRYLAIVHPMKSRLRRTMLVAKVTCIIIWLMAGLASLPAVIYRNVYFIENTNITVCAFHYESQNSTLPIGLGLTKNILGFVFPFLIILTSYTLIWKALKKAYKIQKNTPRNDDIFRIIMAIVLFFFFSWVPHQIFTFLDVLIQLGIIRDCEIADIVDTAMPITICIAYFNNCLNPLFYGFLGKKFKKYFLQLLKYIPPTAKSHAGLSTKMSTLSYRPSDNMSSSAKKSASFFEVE
T1 sequence (P25095 whole entry): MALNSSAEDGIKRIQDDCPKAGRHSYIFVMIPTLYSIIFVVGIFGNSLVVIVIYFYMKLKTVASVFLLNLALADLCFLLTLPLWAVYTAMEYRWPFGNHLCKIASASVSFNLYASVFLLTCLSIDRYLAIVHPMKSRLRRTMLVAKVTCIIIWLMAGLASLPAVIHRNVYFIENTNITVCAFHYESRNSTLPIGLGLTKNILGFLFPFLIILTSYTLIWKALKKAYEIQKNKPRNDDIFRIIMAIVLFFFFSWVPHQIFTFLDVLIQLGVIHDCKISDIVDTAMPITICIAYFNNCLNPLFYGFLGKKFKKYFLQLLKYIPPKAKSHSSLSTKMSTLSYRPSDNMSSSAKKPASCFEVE
The experiment in a line: Concentration required for 50% inhibition of [125I]- AII binding to rat liver membrane preparation (AT1).

A short description of assay [2]: Concentration required for 50% inhibition of [125I]- AII binding to rabbit uterus membrane preparation (AT2). It counts as tissue-based, Oryctolagus cuniculus.
Assay [3] has as its system Rattus norvegicus. The experiment in a line: Compound was evaluated in vivo, after peroral administration for the inhibition of the pressor response induced by A II (0.75 ug/kg) in normotensive pithed rats. The format is functional. To be noted: for ED50: Rattus norvegicus, po, read-out: ID50 (the source's name).
For assay [4], the system named is Rattus norvegicus. Description: Compound was evaluated in vivo, after intravenous administration for the inhibition of the pressor response induced by A II (0.75 ug/kg) in normotensive pithed rats. The following applies: read-out: ID50 (the source's name). It counts as functional.

For the compound `CCCc1nc(SC)c(C(=O)CS(=O)(=O)c2ccc(OC)cc2)n1Cc1ccc(-c2ccccc2S(=O)(=O)NC(=O)NCc2ccccc2)cc1`, the IC50 (as a rule, the point on the concentration scale where inhibition reaches its midpoint) amounted to 0.1 nM in assay [1] and 2.1 nM in assay [2]. The ED50 in the assay with Rattus norvegicus [3] is 2 mg/kg; with Rattus norvegicus [4], 0.07 mg/kg.
For the compound `CCCCc1nc(SC)c(C(=O)C[S+](C)[O-])n1Cc1ccc(-c2ccccc2S(=O)(=O)NC(=O)NCc2ccccc2)cc1` (configuration not stated), the IC50 in assay [1] was determined as 0.3 nM; in assay [2], 15 nM. Further, the ED50 in the assay on Rattus norvegicus [3] is 0.7 mg/kg; in the assay on Rattus norvegicus [4], 0.06 mg/kg.
Turning to `CCCCc1nc(SC)c(C(=O)CC(=O)OCC)n1Cc1ccc(-c2ccccc2S(=O)(=O)NC(=O)NCc2ccccc2)cc1`, the half-maximal inhibitory concentration (IC50) in assay [1] turned out to be 0.09 nM; in assay [2], 1 nM.
Consider `CCCCc1nc(SC)c(C(=O)CS(C)(=O)=O)n1Cc1ccc(-c2ccccc2S(=O)(=O)NC(=O)NCc2ccccc2)cc1`, for which the IC50 in assay [1] stood at 0.08 nM; in assay [2], 5.8 nM. For the same compound, the figures for the ED50 in the assay with Rattus norvegicus [3] and with Rattus norvegicus [4] were 1.7 mg/kg and 0.04 mg/kg, respectively.
For the compound `CCCCc1nc(SC)c(C(=O)CC(=O)c2ccccc2)n1Cc1ccc(-c2ccccc2S(=O)(=O)NC(=O)NCc2ccccc2)cc1`, the results for the concentration for half-maximal inhibition (IC50) in assay [1] and in assay [2] were 0.2 nM and 114 nM, respectively.
As to `CCCc1nc(SC)c(C(=O)C[S+]([O-])c2ccccc2)n1Cc1ccc(-c2ccccc2S(=O)(=O)NC(=O)NCc2ccccc2)cc1` (configuration not stated), the IC50 in assay [1] amounted to 0.08 nM; in assay [2], 2.8 nM. The ED50 in the assay with Rattus norvegicus [3] came to 0.8 mg/kg; in the assay on Rattus norvegicus [4], 0.04 mg/kg.
Turning to `CCCc1nc(SC)c(C(=O)C[S+]([O-])c2ccc(C)cc2)n1Cc1ccc(-c2ccccc2S(=O)(=O)NC(=O)NCc2ccccc2)cc1` (single isomer, unassigned; 7g), the IC50 in assay [1] worked out at 0.07 nM; in assay [2], 1.4 nM. Also, the ED50 is 1.5 mg/kg with Rattus norvegicus [3] and 0.03 mg/kg in the assay with Rattus norvegicus [4].
On to `CCCc1nc(SC)c(C(=O)CSc2ccccc2)n1Cc1ccc(-c2ccccc2S(=O)(=O)NC(=O)NCc2ccccc2)cc1`, for which the IC50 was 0.2 nM in assay [1] and 93 nM in assay [2].
On the same counts, the results for `CCCc1nc(SC)c(C(C)=O)n1Cc1ccc(-c2ccccc2S(=O)(=O)NC(=O)NCc2ccccc2)cc1` are 0.08 nM and 30 nM.
As to `CCCc1nc(SC)c(C(=O)C[S+]([O-])c2ccccc2)n1Cc1ccc(-c2ccccc2S(=O)(=O)NC(=O)NCC2CCCC2)cc1` (configuration not stated), the IC50 amounted to 0.35 nM in assay [1] and 7 nM in assay [2]. The ED50 in the assay on Rattus norvegicus [3] was over 3 mg/kg.
For `CCCc1nc(SC)c(C(=O)C[S+]([O-])c2ccccc2)n1Cc1ccc(-c2ccccc2S(=O)(=O)NC(=O)NCc2cccs2)cc1` (configuration not stated), in that order: 0.02 nM, 3.5 nM and 1.4 mg/kg.
Take `CCCCc1nc(SC)c(C(C)(O)C(=O)O)n1Cc1ccc(-c2ccccc2S(=O)(=O)NC(=O)NCCC)cc1` (configuration not stated): in assay [2], the concentration for half-maximal inhibition (IC50) was 8.2 nM.
On to `CCCCc1nc(SC)c(C(=O)CS(=O)(=O)c2ccc(F)cc2)n1Cc1ccc(-c2ccccc2S(=O)(=O)NC(=O)NCc2ccccc2)cc1`, for which the figures for the 50% inhibitory concentration (IC50) in assay [1] and in assay [2] were 0.06 nM and 0.8 nM, respectively. The results for the ED50 with Rattus norvegicus [3] and in the assay with Rattus norvegicus [4] were over 3 mg/kg and 0.12 mg/kg, respectively.
In the case of `CCc1nc(SC)c(C(=O)C[S+]([O-])c2ccccc2)n1Cc1ccc(-c2ccccc2S(=O)(=O)NC(=O)NCc2ccccc2)cc1` (configuration not stated), the IC50 was determined as 0.07 nM in assay [1] and 1.5 nM in assay [2]. Further, the figures for the ED50 in the assay on Rattus norvegicus [3] and with Rattus norvegicus [4] were 2 mg/kg and 0.1 mg/kg, respectively.
For `CCCc1nc(SC)c(C(=O)C[S+]([O-])c2ccc(C)cc2)n1Cc1ccc(-c2ccccc2S(=O)(=O)NC(=O)NCc2ccccc2)cc1` (single isomer, unassigned; 7h), the IC50 worked out at 0.03 nM in assay [1] and 4.2 nM in assay [2]. The compound further had an ID50 in the assay with Rattus norvegicus [3] of 1.5 mg/kg.
`CCCCc1nc(SC)c(C(=O)CS(=O)(=O)c2ccccc2)n1Cc1ccc(-c2ccccc2S(=O)(=O)NC(=O)NCc2ccccc2)cc1`: the IC50 in assay [1] came out at 0.04 nM; in assay [2] it was 1.7 nM. Besides, the figures for the ED50 in the assay on Rattus norvegicus [3] and with Rattus norvegicus [4] were over 3 mg/kg and 0.02 mg/kg, respectively.
For `CCCc1nc(SC)c(C(=O)CS(=O)(=O)c2ccccc2)n1Cc1ccc(-c2ccccc2S(=O)(=O)NC(=O)NCc2ccccc2)cc1`, in that order: 0.09 nM, 2.7 nM, over 3 mg/kg and 0.04 mg/kg.
On the same counts, the results for `CCCCc1nc(SC)c(C(=O)C[S+]([O-])c2ccccc2)n1Cc1ccc(-c2ccccc2S(=O)(=O)NC(=O)NCc2ccccc2)cc1` (configuration not stated) are 0.04 nM, 3 nM, 1.6 mg/kg and 0.12 mg/kg.
With `CCCCc1nc(SC)c(C(=O)C(CCC)S(=O)(=O)c2ccccc2)n1Cc1ccc(-c2ccccc2S(=O)(=O)NC(=O)NCc2ccccc2)cc1` (configuration not stated), the figures for the IC50 in assay [1] and in assay [2] were 1.8 nM and 180 nM, respectively.
In assay [2], `CCCCc1nc(SC)c(C(=O)O)n1Cc1ccc(-c2ccccc2S(=O)(=O)NC(=O)NCCC)cc1` yielded an IC50 of 920 nM.
Take `CCCc1nc(SC)c(C(=O)CC#N)n1Cc1ccc(-c2ccccc2S(=O)(=O)NC(=O)NCc2ccccc2)cc1`: the IC50 in assay [1] amounted to 0.3 nM; in assay [2], 110 nM.
For the compound `CCCCc1nc(SC)c(C(=O)O)n1Cc1ccc(-c2ccccc2S(=O)(=O)NC(=O)NCc2ccccc2)cc1`, the IC50 in assay [2] was found to be 17 nM.
For the compound `CCCc1nc(SC)c(C(=O)C[S+]([O-])c2ccccc2)n1Cc1ccc(-c2ccccc2S(=O)(=O)NC(=O)NCC2CCCCC2)cc1` (configuration not stated), the IC50 in assay [1] stood at 0.3 nM; in assay [2], 4 nM. Further, the ED50 in the assay on Rattus norvegicus [3] turned out to be 3.1 mg/kg.

For the origin of these results see ChEMBL document CHEMBL1151521, “Balanced AT1 and AT2 angiotensin II antagonists. III. potent and orally active 5--ketosulfoxide imidazolyl biphenyl sulfonylureas” (Bioorg Med Chem Lett, 1995).
